Laboratory results reported in patent US10766902B2, “Wee-1 inhibiting pyrazolopyrimidinone compounds” (ALMAC DISCOVERY LIMITED, priority 2016, dated 2020).

Assays:
Type in all cases: biochemical
Details in all cases: tested at 300-350 nM
[1] = target: ABL1 (Homo sapiens (Human), UniProt P00519); test: SelectScreen Kinase Profiling: ABL1
Excerpt: (§1) Table 4 below highlights the selectivity of a representative compound of the invention, Example 5, against a panel of 50 kinases (assessed using the Invitrogen SelectScreen® Kinase Profiling Service).

[2] = target: PAK4 (Homo sapiens (Human), UniProt O96013); test: SelectScreen Kinase Profiling: PAK4
Excerpt: as §1

[3] = target: PIM1 (Homo sapiens (Human), UniProt P11309); test: SelectScreen Kinase Profiling: PIM1
Excerpt: as §1

[4] = target: EPHA2 (Homo sapiens (Human), UniProt P29317); test: SelectScreen Kinase Profiling: EPHA2
Excerpt: as §1

[5] = target: MAPK8 (JNK1) (Homo sapiens (Human), UniProt P45983); test: SelectScreen Kinase Profiling: MAPK8 (JNK1)
Excerpt: as §1

[6] = target: PRKCB1 (PKC beta I) (Homo sapiens (Human), UniProt P05771); test: SelectScreen Kinase Profiling: PRKCB1 (PKC beta I)
Excerpt: as §1

[7] = target: ERBB2 (HER2) (Homo sapiens (Human), UniProt P04626); test: SelectScreen Kinase Profiling: ERBB2 (HER2)
Excerpt: as §1

[8] = target: MARK2 (Homo sapiens (Human), UniProt Q7KZI7); test: SelectScreen Kinase Profiling: MARK2
Excerpt: as §1

[9] = target: MAPK14 (p38 alpha) (Homo sapiens (Human), UniProt Q16539); test: SelectScreen Kinase Profiling: MAPK14 (p38 alpha)
Excerpt: as §1

[10] = target: BTK (Homo sapiens (Human), UniProt Q06187); test: SelectScreen Kinase Profiling: BTK
Excerpt: as §1

[11] = target: AURKA (Aurora A) (Homo sapiens (Human), UniProt O14965); test: SelectScreen Kinase Profiling: AURKA (Aurora A)
Excerpt: as §1

[12] = target: FGFR1 (Homo sapiens (Human), UniProt P11362); test: SelectScreen Kinase Profiling: FGFR1
Excerpt: as §1

[13] = target: SRC (Homo sapiens (Human), UniProt P12931); test: SelectScreen Kinase Profiling: SRC
Excerpt: as §1

[14] = target: DYRK3 (Homo sapiens (Human), UniProt O43781); test: SelectScreen Kinase Profiling: DYRK3
Excerpt: as §1

[15] = target: NEK1 (Homo sapiens (Human), UniProt Q96PY6); test: SelectScreen Kinase Profiling: NEK1
Excerpt: as §1

[16] = target: IRAK4 (Homo sapiens (Human), UniProt Q9NWZ3); test: SelectScreen Kinase Profiling: IRAK4
Excerpt: as §1

[17] = target: SYK (Homo sapiens (Human), UniProt P43405); test: SelectScreen Kinase Profiling: SYK
Excerpt: as §1

[18] = target: IGF1R (Homo sapiens (Human), UniProt P08069); test: SelectScreen Kinase Profiling: IGF1R
Excerpt: as §1

[19] = target: AKT1 (PKB alpha) (Homo sapiens (Human), UniProt P31749); test: SelectScreen Kinase Profiling: AKT1 (PKB alpha)
Excerpt: as §1

[20] = target: RPS6KB1 (p70S6K) (Homo sapiens (Human), UniProt P23443); test: SelectScreen Kinase Profiling: RPS6KB1 (p70S6K)
Excerpt: as §1

[21] = target: IKBKB (IKK beta) (Homo sapiens (Human), UniProt O14920); test: SelectScreen Kinase Profiling: IKBKB (IKK beta)
Excerpt: as §1

[22] = target: MET (cMet) (Homo sapiens (Human), UniProt P08581); test: SelectScreen Kinase Profiling: MET (cMet)
Excerpt: as §1

[23] = target: FLT3 (Homo sapiens (Human), UniProt P36888); test: SelectScreen Kinase Profiling: FLT3
Excerpt: as §1

[24] = target: GSK3B (GSK3 beta) (Homo sapiens (Human), UniProt P49841); test: SelectScreen Kinase Profiling: GSK3B (GSK3 beta)
Excerpt: as §1

[25] = target: CDK1/cyclin B (Homo sapiens (Human), UniProt P06493); test: SelectScreen Kinase Profiling: CDK1/cyclin B
Excerpt: as §1

[26] = target: AMPK A1/B1/G1 (Homo sapiens (Human), UniProt Q13131); test: SelectScreen Kinase Profiling: AMPK A1/B1/G1
Excerpt: as §1

[27] = target: INSR (Homo sapiens (Human), UniProt P06213); test: SelectScreen Kinase Profiling: INSR
Excerpt: as §1

[28] = target: PRKACA (PKA) (Homo sapiens (Human), UniProt P17612); test: SelectScreen Kinase Profiling: PRKACA (PKA)
Excerpt: as §1

[29] = target: ACVR1B (ALK4) (Homo sapiens (Human), UniProt P36896); test: SelectScreen Kinase Profiling: ACVR1B (ALK4)
Excerpt: as §1

[30] = target: JAK3 (Homo sapiens (Human), UniProt P52333); test: SelectScreen Kinase Profiling: JAK3
Excerpt: as §1

[31] = target: CSNK2A1 (CK2 alpha 1) (Homo sapiens (Human), UniProt P68400); test: SelectScreen Kinase Profiling: CSNK2A1 (CK2 alpha 1)
Excerpt: as §1

[32] = target: CHEK1 (CHK1) (Homo sapiens (Human), UniProt O14757); test: SelectScreen Kinase Profiling: CHEK1 (CHK1)
Excerpt: as §1

[33] = target: EGFR (ErbB1) (Homo sapiens (Human), UniProt P00533); test: SelectScreen Kinase Profiling: EGFR (ErbB1)
Excerpt: as §1

[34] = target: MAP2K1 (MEK1) (Homo sapiens (Human), UniProt Q02750); test: SelectScreen Kinase Profiling: MAP2K1 (MEK1)
Excerpt: as §1

[35] = target: PLK1 (Homo sapiens (Human), UniProt P53350); test: SelectScreen Kinase Profiling: PLK1
Excerpt: as §1

[36] = target: NTRK1 (TRKA) (Homo sapiens (Human), UniProt P04629); test: SelectScreen Kinase Profiling: NTRK1 (TRKA)
Excerpt: as §1

[37] = target: RPS6KA3 (RSK2) (Homo sapiens (Human), UniProt P51812); test: SelectScreen Kinase Profiling: RPS6KA3 (RSK2)
Excerpt: as §1

[38] = target: MAPKAPK2 (Homo sapiens (Human), UniProt P49137); test: SelectScreen Kinase Profiling: MAPKAPK2
Excerpt: as §1

[39] = target: MAP4K4 (HGK) (Homo sapiens (Human), UniProt O95819); test: SelectScreen Kinase Profiling: MAP4K4 (HGK)
Excerpt: as §1

[40] = target: FRAP1 (mTOR) (Homo sapiens (Human), UniProt P42345); test: SelectScreen Kinase Profiling: FRAP1 (mTOR)
Excerpt: as §1

[41] = target: PDGFRB (PDGFR beta) (Homo sapiens (Human), UniProt P09619); test: SelectScreen Kinase Profiling: PDGFRB (PDGFR beta)
Excerpt: as §1

[42] = target: PHKG2 (Homo sapiens (Human), UniProt P15735); test: SelectScreen Kinase Profiling: PHKG2
Excerpt: as §1

[43] = target: TEK (Tie2) (Homo sapiens (Human), UniProt Q02763); test: SelectScreen Kinase Profiling: TEK (Tie2)
Excerpt: as §1

[44] = target: MAPK1 (ERK2) (Homo sapiens (Human), UniProt P28482); test: SelectScreen Kinase Profiling: MAPK1 (ERK2)
Excerpt: as §1

[45] = target: ROCK1 (Homo sapiens (Human), UniProt Q13464); test: SelectScreen Kinase Profiling: ROCK1
Excerpt: as §1

[46] = target: KIT (Homo sapiens (Human), UniProt P10721); test: SelectScreen Kinase Profiling: KIT
Excerpt: as §1

[47] = target: CSNK1G2 (CK1 gamma 2) (Homo sapiens (Human), UniProt P78368); test: SelectScreen Kinase Profiling: CSNK1G2 (CK1 gamma 2)
Excerpt: as §1

[48] = target: KDR (VEGFR2) (Homo sapiens (Human), UniProt P35968); test: SelectScreen Kinase Profiling: KDR (VEGFR2)
Excerpt: as §1

Chain of RPS6KA3 (RSK2) (P51812 whole entry): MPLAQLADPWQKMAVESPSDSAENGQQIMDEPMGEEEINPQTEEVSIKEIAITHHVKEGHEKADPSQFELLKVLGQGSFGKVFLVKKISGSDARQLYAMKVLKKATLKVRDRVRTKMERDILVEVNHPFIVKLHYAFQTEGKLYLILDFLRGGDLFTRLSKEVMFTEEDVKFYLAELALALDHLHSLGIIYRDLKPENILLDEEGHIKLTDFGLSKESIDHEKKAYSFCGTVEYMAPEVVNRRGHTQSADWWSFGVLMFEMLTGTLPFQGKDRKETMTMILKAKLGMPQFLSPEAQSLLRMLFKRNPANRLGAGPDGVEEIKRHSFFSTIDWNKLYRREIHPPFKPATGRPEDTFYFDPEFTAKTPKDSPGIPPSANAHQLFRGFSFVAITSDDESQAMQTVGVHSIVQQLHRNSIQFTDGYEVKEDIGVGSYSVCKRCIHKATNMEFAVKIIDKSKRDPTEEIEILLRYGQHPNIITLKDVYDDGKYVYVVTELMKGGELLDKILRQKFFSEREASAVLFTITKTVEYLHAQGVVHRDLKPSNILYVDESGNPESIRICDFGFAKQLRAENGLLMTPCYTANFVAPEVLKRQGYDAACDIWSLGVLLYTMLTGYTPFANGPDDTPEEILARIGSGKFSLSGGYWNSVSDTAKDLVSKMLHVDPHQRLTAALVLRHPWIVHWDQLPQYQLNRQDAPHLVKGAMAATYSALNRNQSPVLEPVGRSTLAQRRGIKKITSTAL
Chain of AURKA (Aurora A) (O14965 whole entry): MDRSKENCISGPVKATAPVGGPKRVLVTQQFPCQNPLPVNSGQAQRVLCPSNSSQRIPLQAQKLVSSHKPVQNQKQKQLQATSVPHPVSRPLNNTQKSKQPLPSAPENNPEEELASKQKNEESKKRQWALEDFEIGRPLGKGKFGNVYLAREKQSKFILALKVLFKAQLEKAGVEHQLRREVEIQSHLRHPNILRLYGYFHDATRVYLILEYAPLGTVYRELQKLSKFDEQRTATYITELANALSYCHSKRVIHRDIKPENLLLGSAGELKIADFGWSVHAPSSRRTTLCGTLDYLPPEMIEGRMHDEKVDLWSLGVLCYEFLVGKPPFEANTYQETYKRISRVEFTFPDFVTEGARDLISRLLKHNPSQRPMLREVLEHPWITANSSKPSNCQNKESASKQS
Chain of CSNK2A1 (CK2 alpha 1) (P68400 whole entry): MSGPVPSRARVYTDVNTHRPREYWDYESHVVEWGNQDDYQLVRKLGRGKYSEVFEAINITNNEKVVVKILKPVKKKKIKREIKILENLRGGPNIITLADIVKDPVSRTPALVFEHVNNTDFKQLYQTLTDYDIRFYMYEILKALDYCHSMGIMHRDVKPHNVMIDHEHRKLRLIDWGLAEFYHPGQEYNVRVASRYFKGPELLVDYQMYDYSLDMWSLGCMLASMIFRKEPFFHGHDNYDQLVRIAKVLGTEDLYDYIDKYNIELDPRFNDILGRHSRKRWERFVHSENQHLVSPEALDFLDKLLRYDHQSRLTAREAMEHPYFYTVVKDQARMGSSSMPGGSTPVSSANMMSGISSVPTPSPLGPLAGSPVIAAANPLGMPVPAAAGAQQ
Chain of PHKG2 (P15735 whole entry): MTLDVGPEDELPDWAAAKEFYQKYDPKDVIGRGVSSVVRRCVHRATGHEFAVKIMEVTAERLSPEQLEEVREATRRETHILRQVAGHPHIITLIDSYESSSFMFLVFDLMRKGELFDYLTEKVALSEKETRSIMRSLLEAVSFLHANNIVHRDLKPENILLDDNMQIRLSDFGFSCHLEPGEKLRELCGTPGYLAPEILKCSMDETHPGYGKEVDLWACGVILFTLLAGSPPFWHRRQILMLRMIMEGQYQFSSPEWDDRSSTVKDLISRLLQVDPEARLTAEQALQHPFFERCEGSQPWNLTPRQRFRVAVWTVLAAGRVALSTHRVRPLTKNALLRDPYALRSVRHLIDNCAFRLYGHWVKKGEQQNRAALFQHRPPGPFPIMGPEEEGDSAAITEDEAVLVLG
Chain of CHEK1 (CHK1) (O14757 whole entry): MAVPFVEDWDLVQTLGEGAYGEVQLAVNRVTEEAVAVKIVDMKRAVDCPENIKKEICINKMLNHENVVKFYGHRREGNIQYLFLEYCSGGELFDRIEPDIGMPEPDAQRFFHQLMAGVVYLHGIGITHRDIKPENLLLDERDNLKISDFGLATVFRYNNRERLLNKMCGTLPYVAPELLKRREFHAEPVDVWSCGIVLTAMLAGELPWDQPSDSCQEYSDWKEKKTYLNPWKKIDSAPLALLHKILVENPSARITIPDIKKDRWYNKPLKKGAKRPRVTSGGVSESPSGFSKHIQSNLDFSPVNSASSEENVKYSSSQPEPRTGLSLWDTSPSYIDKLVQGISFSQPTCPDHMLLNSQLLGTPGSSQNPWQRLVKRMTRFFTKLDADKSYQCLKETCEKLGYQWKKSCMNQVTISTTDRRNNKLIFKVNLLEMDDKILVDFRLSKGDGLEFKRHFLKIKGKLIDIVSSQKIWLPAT
Chain of FLT3 (P36888 27-993): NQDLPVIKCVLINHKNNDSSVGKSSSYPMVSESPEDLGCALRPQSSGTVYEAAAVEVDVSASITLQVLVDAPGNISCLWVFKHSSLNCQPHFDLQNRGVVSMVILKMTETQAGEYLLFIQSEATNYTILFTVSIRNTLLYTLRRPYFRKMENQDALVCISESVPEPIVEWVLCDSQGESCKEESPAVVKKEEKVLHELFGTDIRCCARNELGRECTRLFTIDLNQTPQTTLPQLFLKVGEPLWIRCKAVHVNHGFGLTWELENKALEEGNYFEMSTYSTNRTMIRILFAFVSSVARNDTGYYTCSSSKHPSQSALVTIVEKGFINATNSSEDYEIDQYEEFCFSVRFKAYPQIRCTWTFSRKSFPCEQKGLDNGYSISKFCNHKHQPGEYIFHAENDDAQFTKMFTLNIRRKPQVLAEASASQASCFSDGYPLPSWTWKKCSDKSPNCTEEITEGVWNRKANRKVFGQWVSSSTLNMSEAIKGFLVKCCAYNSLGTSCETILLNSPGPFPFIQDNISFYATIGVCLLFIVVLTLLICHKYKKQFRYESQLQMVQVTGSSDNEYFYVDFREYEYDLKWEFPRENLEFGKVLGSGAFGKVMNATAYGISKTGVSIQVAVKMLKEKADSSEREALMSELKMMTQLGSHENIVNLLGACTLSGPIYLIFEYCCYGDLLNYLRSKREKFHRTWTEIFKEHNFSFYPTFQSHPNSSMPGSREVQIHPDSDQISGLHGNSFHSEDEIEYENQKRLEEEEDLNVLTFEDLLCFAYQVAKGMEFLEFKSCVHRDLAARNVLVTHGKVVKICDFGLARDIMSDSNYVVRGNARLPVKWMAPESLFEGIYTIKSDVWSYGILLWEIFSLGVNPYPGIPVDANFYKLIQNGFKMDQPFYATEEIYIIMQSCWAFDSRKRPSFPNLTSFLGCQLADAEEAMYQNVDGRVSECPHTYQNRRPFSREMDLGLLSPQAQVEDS
Chain of MET (cMet) (P08581 25-1390): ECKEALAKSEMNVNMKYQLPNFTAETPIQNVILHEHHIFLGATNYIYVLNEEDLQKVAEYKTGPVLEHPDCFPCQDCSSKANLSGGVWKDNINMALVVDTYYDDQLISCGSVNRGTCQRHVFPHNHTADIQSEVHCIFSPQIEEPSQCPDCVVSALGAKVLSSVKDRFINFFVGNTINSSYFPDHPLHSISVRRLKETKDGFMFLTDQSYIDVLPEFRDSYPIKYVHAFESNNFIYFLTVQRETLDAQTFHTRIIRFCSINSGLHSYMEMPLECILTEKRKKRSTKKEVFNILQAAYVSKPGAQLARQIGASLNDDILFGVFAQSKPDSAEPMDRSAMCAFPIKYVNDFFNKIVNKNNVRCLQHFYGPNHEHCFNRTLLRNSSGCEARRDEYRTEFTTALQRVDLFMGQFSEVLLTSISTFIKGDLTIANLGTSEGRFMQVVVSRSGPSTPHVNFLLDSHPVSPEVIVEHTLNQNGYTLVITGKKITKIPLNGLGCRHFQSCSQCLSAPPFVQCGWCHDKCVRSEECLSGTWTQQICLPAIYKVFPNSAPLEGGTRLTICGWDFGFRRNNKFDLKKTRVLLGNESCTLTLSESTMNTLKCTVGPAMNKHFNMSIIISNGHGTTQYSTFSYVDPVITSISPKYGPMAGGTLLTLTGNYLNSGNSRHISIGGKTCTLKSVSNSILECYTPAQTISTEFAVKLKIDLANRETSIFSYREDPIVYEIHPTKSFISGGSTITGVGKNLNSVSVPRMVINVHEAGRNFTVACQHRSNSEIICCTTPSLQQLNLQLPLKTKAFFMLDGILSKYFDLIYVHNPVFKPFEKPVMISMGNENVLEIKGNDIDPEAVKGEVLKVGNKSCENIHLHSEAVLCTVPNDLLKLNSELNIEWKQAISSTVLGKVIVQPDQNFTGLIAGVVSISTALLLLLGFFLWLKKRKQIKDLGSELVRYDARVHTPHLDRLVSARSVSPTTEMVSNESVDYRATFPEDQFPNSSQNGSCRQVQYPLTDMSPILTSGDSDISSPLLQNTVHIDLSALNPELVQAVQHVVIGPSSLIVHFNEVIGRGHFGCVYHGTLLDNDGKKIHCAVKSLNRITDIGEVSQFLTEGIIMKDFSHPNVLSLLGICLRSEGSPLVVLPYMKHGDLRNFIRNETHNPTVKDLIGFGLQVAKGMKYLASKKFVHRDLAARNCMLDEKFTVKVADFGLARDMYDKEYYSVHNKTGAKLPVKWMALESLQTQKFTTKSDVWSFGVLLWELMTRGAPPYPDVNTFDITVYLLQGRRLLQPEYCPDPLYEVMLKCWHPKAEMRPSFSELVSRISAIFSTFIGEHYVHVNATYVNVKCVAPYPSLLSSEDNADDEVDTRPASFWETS

## C=CCn1c(=O)c2cnc(Nc3ccc(N4CCN(C)CC4)cc3)nc2n1-c1cccc(C(C)(C)O)n1 [reference compound]
[1]
  inhibition of ABL1: + (inhibition over 50% (tested at 300-350 nM))
[2]
  inhibition of PAK4: − (inhibition under 50% (tested at 300-350 nM))
[3]
  inhibition of PIM1: − (inhibition under 50% (tested at 300-350 nM))
[4]
  inhibition of EPHA2: − (inhibition under 50% (tested at 300-350 nM))
[5]
  inhibition of MAPK8 (JNK1): − (inhibition under 50% (tested at 300-350 nM))
[6]
  inhibition of PRKCB1 (PKC beta I): − (inhibition under 50% (tested at 300-350 nM))
[7]
  inhibition of ERBB2 (HER2): − (inhibition under 50% (tested at 300-350 nM))
[8]
  inhibition of MARK2: − (inhibition under 50% (tested at 300-350 nM))
[9]
  inhibition of MAPK14 (p38 alpha): − (inhibition under 50% (tested at 300-350 nM))
[10]
  inhibition of BTK: − (inhibition under 50% (tested at 300-350 nM))
[11]
  inhibition of AURKA (Aurora A): − (inhibition under 50% (tested at 300-350 nM))
[12]
  inhibition of FGFR1: − (inhibition under 50% (tested at 300-350 nM))
[13]
  inhibition of SRC: + (inhibition over 50% (tested at 300-350 nM))
[14]
  inhibition of DYRK3: − (inhibition under 50% (tested at 300-350 nM))
[15]
  inhibition of NEK1: − (inhibition under 50% (tested at 300-350 nM))
[16]
  inhibition of IRAK4: − (inhibition under 50% (tested at 300-350 nM))
[17]
  inhibition of SYK: + (inhibition over 50% (tested at 300-350 nM))
[18]
  inhibition of IGF1R: − (inhibition under 50% (tested at 300-350 nM))
[19]
  inhibition of AKT1 (PKB alpha): − (inhibition under 50% (tested at 300-350 nM))
[20]
  inhibition of RPS6KB1 (p70S6K): − (inhibition under 50% (tested at 300-350 nM))
[21]
  inhibition of IKBKB (IKK beta): − (inhibition under 50% (tested at 300-350 nM))
[22]
  inhibition of MET (cMet): − (inhibition under 50% (tested at 300-350 nM))
[23]
  inhibition of FLT3: − (inhibition under 50% (tested at 300-350 nM))
[24]
  inhibition of GSK3B (GSK3 beta): − (inhibition under 50% (tested at 300-350 nM))
[25]
  inhibition of CDK1/cyclin B: − (inhibition under 50% (tested at 300-350 nM))
[26]
  inhibition of AMPK A1/B1/G1: − (inhibition under 50% (tested at 300-350 nM))
[27]
  inhibition of INSR: − (inhibition under 50% (tested at 300-350 nM))
[28]
  inhibition of PRKACA (PKA): − (inhibition under 50% (tested at 300-350 nM))
[29]
  inhibition of ACVR1B (ALK4): − (inhibition under 50% (tested at 300-350 nM))
[30]
  inhibition of JAK3: − (inhibition under 50% (tested at 300-350 nM))
[31]
  inhibition of CSNK2A1 (CK2 alpha 1): − (inhibition under 50% (tested at 300-350 nM))
[32]
  inhibition of CHEK1 (CHK1): − (inhibition under 50% (tested at 300-350 nM))
[33]
  inhibition of EGFR (ErbB1): + (inhibition over 50% (tested at 300-350 nM))
[34]
  inhibition of MAP2K1 (MEK1): − (inhibition under 50% (tested at 300-350 nM))
[35]
  inhibition of PLK1: − (inhibition under 50% (tested at 300-350 nM))
[36]
  inhibition of NTRK1 (TRKA): − (inhibition under 50% (tested at 300-350 nM))
[37]
  inhibition of RPS6KA3 (RSK2): − (inhibition under 50% (tested at 300-350 nM))
[38]
  inhibition of MAPKAPK2: − (inhibition under 50% (tested at 300-350 nM))
[39]
  inhibition of MAP4K4 (HGK): + (inhibition over 50% (tested at 300-350 nM))
[40]
  inhibition of FRAP1 (mTOR): − (inhibition under 50% (tested at 300-350 nM))
[41]
  inhibition of PDGFRB (PDGFR beta): − (inhibition under 50% (tested at 300-350 nM))
[42]
  inhibition of PHKG2: − (inhibition under 50% (tested at 300-350 nM))
[43]
  inhibition of TEK (Tie2): − (inhibition under 50% (tested at 300-350 nM))
[44]
  inhibition of MAPK1 (ERK2): − (inhibition under 50% (tested at 300-350 nM))
[45]
  inhibition of ROCK1: − (inhibition under 50% (tested at 300-350 nM))
[46]
  inhibition of KIT: − (inhibition under 50% (tested at 300-350 nM))
[47]
  inhibition of CSNK1G2 (CK1 gamma 2): − (inhibition under 50% (tested at 300-350 nM))
[48]
  inhibition of KDR (VEGFR2): − (inhibition under 50% (tested at 300-350 nM))
